Laboratory results published in PMC5081312, “Antifouling phenyl ethers and other compounds from the invertebrates and their symbiotic fungi collected from the South China Sea” (AMB Express, 2016).
Read-outs that look alike come from different tables or passages of the source. Starred links: 1 amine or outer side, 2 acyl side, 3 side chain; linkers in the order of their positions; H or OH if unused. Non-standard residues stand in square brackets, D forms with d. Residues, ends and D or L forms follow the SMILES beside them. X1 = O=C(c1cc(O)ccc1N[*:1])[*:2]

Experiments:
[1] = in vivo; details: Artemia salina (brine shrimp), in vivo
Description: The brine shrimp lethality bioassay on Artemia salina was performed to predict the toxicity of the compounds. The test was conducted using 24-well plate as described previously according to standard protocols (Solis et al. [1993]; Meyer et al. [1982]). The wells containing FSW-DMSO (v/v 1:1000) served as the negative controls. Adriamycin was used as a positive control. There were three replicate wells per concentration, and each bioassay experiment had three replicates using three different batches of brine shrimp.

[2] = Anti-larval settlement bioassay (antifouling activity and larval toxicity); format: in vivo; details: Balanus (Amphibalanus) amphitrite (barnacle cyprid larvae), in vivo, cyprids of B. amphitrite, 48 h at 28 °C, concentration where 50% of larvae were dead; for LC50 at 48 h: other: larvae immersed in test solution
Description: (§1) The newly released nauplii were screened with the aperture of 90 μm. The newly released nauplii were raised in filtered seawater (FSW) at 28 °C with mild aeration and fed with Chaetoceros gracilis Schutt at 1 × 10^6 cells ml^−1. The nauplius larvae transformed into cyprids (ready to attach and metamorphose) after 3.5 days. Newly transformed cyprids were kept in filtered seawater at 4 °C overnight before being used in the anti-larval settlement bioassay.
(§2) The antifouling activity was evaluated as larval settlement inhibition against the cyprids of barnacle B. amphitrite using 24-well polystyrene plates (Nunc, Naperville, CA, USA). Each compound was dissolved in a stock solution of DMSO with the concentration of 50 mg ml^−1, and then diluted 1000 times with FSW to 50 μg ml^−1. The compound was further transferred into FSW to make up the following test solution with the concentrations ranging from 25 to 0.50 μg ml^−1. One millilitre of the test solution and 16–20 larvae were allocated to each well of the 24-well plate. Each concentration had three replicate wells. The plates were cultivated in darkness for 48 h at 28 °C. The effects of the test compounds against the larvae settlement were determined by examining the plates under a dissecting microscope to check for (1) settled larvae (attached and metamorphosed), (2) swimming larvae, as well as (3) any possible toxic effects of the treatments (dead and paralyzed). The number of the settled larvae was expressed as a percentage of the total number of larvae per well. Each compound was tested by triplicate experiments using three different batches of larvae.
(§3) The EC50 and LC50 values of each compound were calculated according to the records of anti-larval settlement experiments. […] Then a concentration–response curve was plotted and a tread line was set up.

[3] = tested on: cyprids of barnacle B. amphitrite; assay: as above; format: in vivo; details: for EC50: read-out: EC50 (larval settlement inhibition); for LC50/EC50 ratio (therapeutic ratio): B. amphitrite cyprids, ratio >15 considered non-toxic; for LC50: concentration where 50% of larvae were dead
Description: as §1, §2, §3

[4] = Amphibalanus amphitrite, 48 h, cyprids of B. amphitrite, 48 h at 28 °C, concentration where 50% of larvae were inhibited to settle vs negative control
[5] = LC50 (brine shrimp lethality), Artemia salina
[6] = cyprids of B. amphitrite, 48 h at 28 °C, concentration where 50% of larvae were inhibited to settle vs negative control
[7] = cyprids of B. amphitrite, 48 h at 28 °C
[8] = Amphibalanus amphitrite, cyprids of B. amphitrite, 48 h at 28 °C, concentration where 50% of larvae were inhibited to settle vs negative control

| Compound | LC50 at 48 h [2] | EC50 [3, 4] | LC50/EC50 ratio (therapeutic ratio) [3] | EC50 [3, 6] | LC50 [3, 7] | further results |
| --- | --- | --- | --- | --- | --- | --- |
| COc1cccc2c1C(=O)c1c(O)c3c(c(O)c1C2=O)C[C@@](O)(C(=O)CO)C[C@@H]3O[C@H]1C[C@H](N)[C@H](O)[C@H](C)O1 [Adriamycin, reference compound] |  |  |  |  |  | LC50 [1]: 12 µM |
| Cc1cc(O)cc(Oc2cc(C)cc(O)c2)c1 [compound 1, Diorcinol] | > 217 µM | 32.6 µM | >6.67 |  |  | LC50 [1, 5]: 126 µM |
| Cc1cc(O)cc(Oc2cc(C)cc(O)c2O)c1 [compound 2, Cordyol C] | > 203 µM | 57.3 µM | >3.54 |  |  | LC50 [1, 5]: 126 µM |
| COc1cc(C)cc(Oc2cc(C)cc(O)c2)c1 [compound 4, Cordyol E] | > 205 µM | 31 µM | >6.61 |  |  | LC50 [1, 5]: 41 µM |
| CCCOc1cc(C)cc(Oc2cc(C)cc(O)c2)c1 [compound 7, 3-O-propyl-diorcinol] | 112 µM | < 10 µM | 11.4 | 9.82 µM |  |  |
| CCCCCOc1cc(C)cc(Oc2cc(C)cc(O)c2)c1 [compound 8, 3-O-pentyl-diorcinol] | > 167 µM | 27.9 µM | >5.99 |  |  |  |
| CC(=O)Oc1cc(C)cc(Oc2cc(C)cc(O)c2)c1 [compound 9, 3-O-acetyl-diorcinol] | 64.3 µM |  |  |  |  |  |
| CC(=O)Oc1cc(C)cc(Oc2cc(C)cc(OC(C)=O)c2)c1 [compound 11, 3,3′-O-diacetyl-diorcinol] | 49.4 µM |  |  |  |  |  |
| CCCCCOc1cc(C)cc(Oc2cc(C)cc(OCCCCC)c2)c1 [compound 12, 3,3′-O-dipentyl-diorcinol] | > 135 µM | 12.2 µM | >11.1 |  |  |  |
| Cc1cc(C=O)c2c(C)ccc(C(C)C)cc1-2 [compound 16, 1-Formylguaiazulene] | 221 µM | 42 µM |  |  |  |  |
| Cc1cc(C=O)c2c(C)cc3c(cc1-2)[C@@H](C)CO3 [compound 18, Ochracenoid A] | 208 µM | 83.3 µM |  |  |  |  |
| CC1=CC(=O)c2c(C)cc3oc(=O)c(C)c-3cc21 [compound 21, Ketolactone] | > 208 µM | > 104 µM |  |  |  |  |
| C/C(=C\[C@H](O)C[C@@H](C)CCCc1ccoc1)CCCc1ccoc1 [compound 22, Furospongin-1] | 153 µM | 6.05 µM | 25.2 | 6.06 µM |  | inhibition of larval settlement in preliminary screening ([3]; B. amphitrite, at 25.0 μg ml^−1): completely inhibited |
| C[C@]12CC[C@H](O)[C@H](O1)c1c(cc3c(c1O)C(=O)c1c(O)cc(O)cc1C3=O)O2 [compound 34, Nidurufin] |  |  |  | > 65.1 µM | > 130 µM |  |
| COc1cc(O)cc2c1C(=O)c1c(O)cc(CO)cc1C2=O [compound 35, Questinol] |  |  |  | > 83.3 µM | > 167 µM |  |
| COc1cc(O)cc2c1C(=O)c1c(O)cc(CO)c(O)c1C2=O [compound 36, ω-Hydroxyrubrocristin] |  |  |  | > 79.1 µM | > 158 µM |  |
| COc1cc(O)c(-c2c3c(c(O)c4c(OC)cc(O)cc24)C(=O)C=C(C)C3=O)c2cc3c(c(O)c12)C(=O)C[C@@](C)(O)C3 [compound 37, Asperinine A] |  |  | >2.88 | 30.5 µM | > 87.7 µM |  |

| Compound | LC50 at 48 h [2] | EC50 [3, 4] | LC50/EC50 ratio (therapeutic ratio) [3] | EC50 [3, 6] | LC50 [3, 7] | further results |
| --- | --- | --- | --- | --- | --- | --- |
| COc1cc(O)c(-c2c3c(c(O)c4c(OC)cc(O)cc24)C(=O)C=C(C)C3=O)c2cc3c(c(O)c12)C(=O)C[C@@](C)(O)C3 [compound 38, Asperinine B] |  |  | >2.22 | 39.5 µM | > 87.7 µM |  |
| CC[C@H](O)c1cc(O)c2c(c1)C(=O)c1cc(O)cc(O)c1C2=O [compound 39, Rhodoptilometrin] |  |  | 13.4 | 11.9 µM | 159 µM |  |
| C=CC(C)(C)c1[nH]c2ccc(CC=C(C)C)cc2c1C=C1NC(=O)C2(C=C3c4cc(O)cc(OC)c4C(=O)c4c(O)cc(C)c(c43)O2)NC1=O (stereo not shown) [compound 41, 7-O-methylvariecolortide A] |  |  |  | > 74.5 µM | > 74.5 µM |  |
| C=CC(C)(C)c1[nH]c2ccccc2c1/C=C1\NC(=O)C2(C=C3c4cc(O)cc(O)c4C(=O)c4c(O)cc(C)c(c43)O2)NC1=O (stereo not shown) [compound 42, Variecolortide B] |  |  |  | > 84.9 µM | > 84.9 µM |  |
| C=CC(C)(C)c1[nH]c2c(CC=C(C)C)cc(CC=C(C)C)cc2c1C[C@@H]1NC(=O)[C@H](C)NC1=O [compound 44, Echinulin] |  |  |  |  |  | LC50 [2]: > 108 µM; EC50 ([3]; Amphibalanus amphitrite, 48 h): > 54.2 µM |
| CO[C@H]1[C@@H](O)CC/C(C)=C/[C@H]2C=C(C)[C@@H](C)[C@H]3[C@H](CC(C)C)NC(=O)[C@]32C(=O)C[C@@H]1O [compound 46, Aspochalasin K] |  |  | >6.65 |  |  | LC50 [2]: > 115 µM; EC50 [3, 8]: 17.3 µM |
| CC1=C[C@@H]2/C=C(\C)CC[C@H](O)[C@H](O)[C@@H](O)CC(=O)[C@]23C(=O)N[C@@H](CC(C)C)[C@@H]3[C@@H]1C [compound 47, Aspochalasin E] |  |  | >3.70 |  |  | LC50 [2]: > 119 µM; EC50 [3, 8]: 32.2 µM |
| COc1cc(O)cc(C)c1C(=O)O[C@@H]1[C@H](O)[C@@H](CO)O[C@H]1n1ccc(=O)[nH]c1=O [compound 48, Kipukasin H] |  |  |  | > 61.3 µM | > 123 µM |  |
| COc1cc(C)c(C(=O)O[C@@H]2[C@H](O)[C@@H](CO)O[C@H]2n2ccc(=O)[nH]c2=O)c(OC)c1 [compound 49, Kipukasin E] |  |  |  | > 59.2 µM | > 59.2 µM |  |
| COc1cc(C)c(C(=O)O[C@H]2[C@@H](O)[C@H](n3ccc(=O)[nH]c3=O)O[C@@H]2CO)c(OC)c1 [compound 50, Kipukasin D] |  |  |  | > 59.2 µM | > 59.2 µM |  |
| COc1cc(C)c(C(=O)O[C@@H]2[C@H](OC(C)=O)[C@@H](COC(C)=O)O[C@H]2n2ccc(=O)[nH]c2=O)c(OC)c1 [compound 51, Diacetylkipukasin E] |  |  | >2.22 | 44.5 µM | > 98.8 µM |  |
| COc1cc(C)c(C(=O)O[C@H]2[C@@H](OC(C)=O)[C@H](n3ccc(=O)[nH]c3=O)O[C@@H]2COC(C)=O)c(OC)c1 [compound 52, Diacetylkipukasin D] |  |  |  | > 49.4 µM | > 98.8 µM |  |
| COC(=O)c1ccccc1NC(=O)[C@H](CC[S+](C)[O-])NC(=O)c1cnc2c(n1)c(=O)n(C)c(=O)n2C (stereo partly shown) [compound 53, Penilumamide] |  |  |  | > 96.9 µM | > 96.9 µM |  |
| C[C@H](NC(=O)c1cnc2c(n1)c(=O)n(C)c(=O)n2C)C(=O)Nc1ccccc1C(N)=O [compound 54, Penilumamide D] |  |  |  | > 58.8 µM | > 58.8 µM |  |
| C[C@@H]1NC(=O)[C@H](Cc2ccc(O)cc2)NC(=O)c2cc(O)ccc2NC(=O)[C@@H]2CCCN2C(=O)[C@H](C)NC1=O [compound 55, Asperpeptide A] (cyclo(AAP[X1]Y)) |  |  |  | > 46.6 µM | > 46.6 µM |  |
| Variecolortide C [compound 40] |  |  |  | > 82.9 µM | > 82.9 µM |  |
